Assay results as given in US20260240842A1, “METHODS TO PREVENT THERAPY RESISTANCE IN MELANOMA VIA BLOCKING GENOMIC INSTABILITY” (THE REGENTS OF THE UNIVERSITY OF CALIFORNIA, priority 2022, published 2026).

Columns and labels:
[1] = test system: human BRAF^V600MUT (M229, M249, M395) or NRAS^Q61MUT (M202, M207, M245) melanoma cell lines; assay: Long-term clonogenic growth: emergence of acquired MAPKi-resistant colonies (DTPPs) in parental melanoma cell lines under MAPKi; assay type: cell-based; details: parental cell lines, FIG. 11C to 11E and FIG. 12
Experimental: FIGS. 4A-4U. DNA-PKi and/or PARPi co-treatment prevents acquired MAPKi-resistance in human melanoma cell lines. FIGS. 4A to 4O: Long-term clonogenic growth of isogenic parental and acquired MAPKi-resistant BRAF^V600MUT (4A to 4H) or NRAS^Q61MUT (4I to 4O) human melanoma cell lines showing acquired-resistant colonies to BRAFi+MEKi (PLX4032 at 0.5 mM, AZD6244 at 0.5 mM in 4A and 4G; PLX4032 at 0.25 mM, AZD6244 at 0.25 mM in 4D; PLX4032 at 1 mM, AZD6244 at 1 mM in 4B, 4C, 4E, 4F and 4H) or MEKi (trametinib at 0.005 mM in I and 0.01 mM in 4J and 4N; trametinib at 0.1 mM in 4K, 4M and 4O) and their suppression by indicated co-treatments with DNA-PKi (NU7026) and/or PARPi (ABT888) at indicated concentrations. Top, representative cultures; bottom, quantifications over n=4 fields (mean±SD). Data representative of 2 to 4 independent repeats. Seeding densities (cells/well in 6-well dishes) and culture durations (days): (4A) 5,000; 31, (4B) 1,000; 17, (4C) 5,000; 18, (4D) 40,000; 40, (4E) 5,000; 14, (4F) 5,000; 12, (4G) 20,000; 30, (4H) 20,000; 21, (4I) 40,000; 30, (4J) 50,000; 31, (4K) 5,000; 17, (4L) 5,000; 22, (4M) 5,000; 16, (4N) 20.000; 16, and (4O) 5,000; 16. Data representative of 2 to 4 independent repeats. FIGS. 4P and 4Q: Western blot, MTT assay (upper), and clonogenic growth assay (lower) of M245 cells transduced by lentivirus harboring shVector control or shRNAs of PRKDC (4P) or LIG4 (4Q). TUBULIN, loading control. Clonogenic growth with vehicle (14 days, 5,000 cells/well in 6-well dishes) or MEKi (29 days, 50,000 cells/well in 6-well dishes) treatments. MEKi, trametinib at 0.01 μM. Representative results of two independent experiments; quantification of n=4 fields (mean±SD). FIGS. 4R and 4S: As in 4A and 4J, respectively, except DNA-PKi and/or PARPi co-treatments were performed in M229 (4R) and M245 (4S) at a later stage of MAPKi treatment (see timepoint schema). Inhibitor concentrations for M229: BRAFi+MEKi (PLX4032 at 0.5 μM, AZD6244 at 0.5 μM), NU7026 (8 μM), ABT888 (4 μM) and NU7026+ABT888 (4 μM+4 μM). Inhibitor concentrations for M245: MEKi (trametinib at 0.01 μM), NU7026 (5 μM), ABT888 (1 μM) and NU7026+ABT888 (5 μM+1 μM). Left, representative cultures; right, quantifications over n=4 fields (mean±SD). Data representative of 2 independent repeats. FIGS. 4T and 4U: As in 4A and 4J, respectively, except DNA-PKi and/or PARPi co-treatments were performed in M229 (4T) and M245 cells (4U) at the same concentrations in R and S for the entire durations (day 1-28 in 4T; day 1-30 in 4U), the first half (day 1-14 in T; day 1-15 in 4U) or the second half (day 14-28 in 4T: day 15-30 in 4U) of the total treatment course. Top, representative cultures; bottom, quantifications over n=4 fields (mean±SD). Data representative of 2 independent repeats. P values (one-way ANOVA followed by Tukey's multiple comparison test) comparing indicated cultures versus MAPKi-only cultures (4A to 4O and 4R to 4U) or shVector culture (4P and 4Q): *, p<0.05; **, p<0.01: ***, p<0.001.
FIGS. 12A-12F. DNA-PKi and/or PARPi co-treatment prevents acquired MAPKi-resistance in human melanoma cell lines. FIGS. 12A to 12F: Long-term clonogenic growth of BRAF^V600MUT (12A, 12C and 12E) or NRAS^Q61MUT (12B, 12D and 12F) cell lines showing acquired-resistant colonies to BRAFi+MEKi (PLX4032 at 0.5 mM, AZD6244 at 0.5 mM for M229 and M395; PLX4032 at 0.25 mM, AZD6244 at 0.25 mM for M249) or MEKi (trametinib at 0.005 mM for M202 and 0.01 mM for M207 and M245) and their suppression by indicated co-treatments with DNA-PKi (VX984 in 12A and 12B; AZD7648 in 12C and 12D) and/or PARPi (olaparib in 12E and 12F) at indicated concentrations. Top, representative cultures; bottom, quantifications over n=4 fields (mean±SD). Data representative of 2 independent repeats. Seeding densities (cells/well in 6-well dishes) and culture durations (days): M202 (40,000, 30), M207 (20,000, 16), M229 (5,000, 32), M245 (50,000, 31), M249 (40,000, 40), and M395 (20,000, 30). […]

[2] = test system: γH2AX; assay: Immunofluorescence of γH2AX nuclear foci in early on-treatment PDX tumors; assay type: in vivo, NSG mice; details: short-term MEKi treatment in Mel_PDX1; FIG. 13G
Excerpt: FIGS. 13A-13H. In vivo impacts of DNA-PKi when combined with MAPKi. FIGS. 13A and 13B: Long-term follow-up of tumor volumes (13A, BRAFi+MEKi, n=5 tumors; BRAFi+MEKi+DNA-PKi, n=6 tumors) (13B, MEKi, n=6 tumors; MEKi+DNAP-PKi, n=6 tumors) and average mice body weights for 13A and 13B. Related to experiments in FIGS. 7B and 7E, respectively. FIGS. 13C and 13D, Tumor volumes (mean±SEM) of two examples of tumor models treated short-term with vehicle or indicated single versus combined agents. Inhibitors and dosages are identical to those in FIGS. 7C and 7E, respectively. The numbers of tumors and their sizes are shown in the photographs (right) taken at the times of tumor harvest (end points). FIGS. 13E to 13G: Immunofluorescence of p-ERK (13E), p-DNA-PKcs (S2056) (13F), or γH2AX (13G) levels in Mel_PDX1 tumor model, treated with vehicle or indicated single versus combined agents for 11 days (shown in 13C). DAPI, nuclear stain. Scale bar, 50 μm (13E) and 20 μm (13F and 13G). Representative images shown for two tumors analyzed per group. Quantification of p-DNA-PKcs signals obtained by taking the average of positively stained foci per nucleus (13F, representative of 4 fields). Quantification of γH2AX signals analyzed either by percentage of cells with γH2AX foci or percentage of cells with greater than 5 γH2AX foci (13G, representative of 4 fields). […]

Row | Structure (SMILES) | combinatorial efficacy of next-generation DNA-PKi and PARPi with MAPKi [1] | tumor cells with gH2AX nuclear foci [2] [%]
1 | Cc1cc2ncnn2cc1Nc1ncc2c(n1)n(C1CCOCC1)c(=O)n2C [AZD7648] | corroborated the combinatorial efficacy | 
2 | O=C(c1cc(Cc2n[nH]c(=O)c3ccccc23)ccc1F)N1CCN(C(=O)C2CC2)CC1 [olaparib] | corroborated the combinatorial efficacy | 
3 | CC(=O)Nc1cccc(-n2c(=O)n(C3CC3)c(=O)c3c(Nc4ccc(I)cc4F)n(C)c(=O)c(C)c32)c1 [trametinib] |  | > 50
